# Measured values from US9162993B2, “Preparation and pharmaceuticals of biphenyl benzamide-derived derivatives” (NATIONAL DEFENSE MEDICAL CENTER, priority 2012, dated 2015).
# Experiments:
# [1] = tested on: NO production; assay: Measurement of NO concentrations (Griess reaction) in porcine chondrocytes; type: cell-based; conditions: Sus scrofa, Chondrocyte, nitrite in supernatants, read-out: anti-inflammatory IC50 (μM) on NO production
# Protocol: Porcine cartilage was obtained from the hind leg joints of pigs. The synthesis of chondrocytes from cartilage was performed according to our previous report. After enzymatic digestion of articular cartilage with 2 mg/mL protease in serum-free Dulbecco's modified Eagle's medium (DMEM)/antibiotics, the specimens were then digested overnight with 2 mg/mL collagenase I and 0.9 mg/ml, hyaluronidase in DMEM containing 10% fetal bovine serum (FBS). The cells were collected, passed through a cell strainer (Becton Dickinson, Mountain View, Calif., USA), and cultured in DMEM containing 10% […] and antibiotics for 3-4 days before use.
# The measurement of NO release was reflected by determination of its stable end product, nitrite, in supernatants. The Griess reaction was performed with the concentrations of nitrite measured by a spectrophotometer. In brief, an aliquot (100 μL) of culture supernatant was incubated with 50 μL of 0.1% sulfanilamide in 5% phosphoric acid and 50 μL of 0.1% N-1-naphthyl-ethylenediamine dihydrochloride. After 10 min of incubation at room temperature, the absorbance was measured at 550 nm wavelength with a plate reader (recall, Grodig, […]).
# [2] = MTT assay, RAW264.7 cell viability; type: cell-based; conditions: mouse; RAW 264.7 cells; cytotoxic concentration that produces 50% cell death
# Protocol: (§1) The compounds 1 to 24 of the present invention is tested by three pharmacological activity tests as follows: (1) MTT assay to test the RAW264.7 cell (murine monocyte/macrophage cell line) viability; (2) Tartrate-resistant acid phosphatase (TRAP) staining and activity analysis to investigate the cell differentiation activity; (3) The activity test of bone resorption (Pit formation assay).
# (§2) The synthesized difunisal derivatives, compounds 1 to 24, were pharmacologically tested to be identified the relationship between their structure and activity. Cell viability was measured by MTT assay in RAW 264.7 cells upon treatment with compounds at 5 μM. CC50 is the cytotoxic concentration that produces 50% (CC50) cell death. […] The multinucleated osteoclasts could be formed by RANKL-induced macrophage cell line […]. RAW 264.7 cells were cultured with the indicated in the presence of drug and RANKL (100 ng/mL). Numbers of TRAP-positive (TRAP^+) multinucleated cells (MNCs) were counted in the presence of RANKL to identify the relationship between osteoclast and bone formation. […] The compound 16 performed the best inhibitory effect in the TRAP staining. The compound 16 was a derivate from compound 4 and its structure was related to compound 4. Therefore, the compound 4 and 16 were performed by TRAP assay to evaluate the effect on osteoclast differentiation by different concentration of compounds. […] According to above result, it can be speculated that: (1) Due to different substitutes on benzene ring of difunisal, the inhibitory ability of RANKL-induced osteoclast differentiation would be different. (2) Due to the electron-withdrawing group substitutes of R1 and R4 on benzene ring, or electron-withdrawing group substitutes derivatives of R2 on benzene ring, such as compound 4. (R1═F and R4═F), compound 6 (R2═CF3), compound 9 (R2═CN) and compound 16 (R1═F and R4═F), (3) compound 4 (R1═F and R4═F) and compound 6 (R2═CF3), a cyclic derivate compound 16 (R1═F and R4═F) and compound 18 (R2═CF3), the inhibitory activity would be stronger.
# [3] = tested on: RAW 264.7 cells; assay: MTT assay, RAW264.7 cell viability; type: cell-based; conditions: MTT assay, compounds at 5 μM
# Protocol: as §1, §2
# [4] = tested on: RANKL-induced osteoclast differentiation in RAW 264.7 cells; assay: TRAP staining, RANKL-induced osteoclast differentiation (TRAP+ multinucleated cells); type: cell-based, murine; conditions: Mus musculus; for inhibition at 5 µM: RAW264.7, RAW 264.7 cells, RANKL (100 ng/mL), compounds at 5 μM, TRAP-positive multinucleated cells, read-out: Inhibition of MNCs (%); for IC50: RAW264.7, different concentrations of compound, FIG. 1A, read-out: TRAP inhibitory activity IC50
# Protocol: as §1, §2
# [5] = tested on: RANKL-induced resorption of osteoclast (RAW264.7 cells); assay: Pit formation assay (bone resorption activity); type: cell-based, murine; conditions: 5 μM, dentine slices, 4 days, FIG. 1B
# Protocol: as §1
# By using pit formation assay, compounds 4 and 16 have effect on inhibition of resorption of osteoclast. RAW264.7 cells were cultured without compounds (compound 4 or compound 16, 5 μM) or treated with compounds (compound 4 or compound 16, 5 μM) in 24 well dentine slices plates in the presence of RANKL after 4 days, to identify the ability of resorption of osteoclast by observing the resorption pits formation. […] It was obvious that compound 4 or 16 could inhibit the RANKL-induced resorption of osteoclast (FIG. 3A to D).
Compound,IC50 [1] [µM],CC50 [2] [µM],Cell viability (%) [3] [%],inhibition at 5 µM [4] [%],IC50 [4] [µM],resorbed area compared to the cell cultured without drug in the presence of RANKL [5] [%]
"O=C(Nc1cc(F)ccc1F)c1cc(-c2ccc(F)cc2F)ccc1O [compound 4, N-(2,5-difluorophenyl)-2′,4′-difluoro-4-hydroxy-[1,1′-biphenyl]-3-carboxamide]",0.71,14.6,102.46 ± 1.10,67.3 ± 4.38,3.89,23.11±2.25
"O=c1oc2ccc(-c3ccc(F)cc3F)cc2c(=O)n1-c1cc(F)ccc1F [compound 16, 6-(2,4-difluorophenyl)-3-(2,5-difluorophenyl)-2H-benzo[e][1,3]oxazine-2,4(3H)-dione]",1.15,10.8,86.60 ± 5.69,86.8 ± 1.74,< 2.5,20.11±1.51
